Data from patent publication US7795311B2, “Methods and compositions for the management of soil-borne fungal diseases” (Pittsburg State University, priority 2007, dated 2010).
Values joined by “and” are separate entries in the source; they are usually repeats but may differ in a detail not shown here. Equal values may be shown once.

How the values were obtained:
[1] = tested on: soil-borne fungal diseases; assay: 1999 and 2000 foliar treatment field trial: viability and mortality data; format: in vivo, soybean; conditions: 1999 foliar treatment
Experimental: (§1) Foliar treatments were prepared on site. R1 and R4 Foliar Carbenoxolone 1000μ/mL treatments were prepared by adding 3.785 g Carbenoxolone to 1 gallon of water and mixed until dissolved. The mixture was then sprayed directly onto foliage using specialized CO2 pressurized aerosol spray equipment set at a spray rate of 1 gallon/100 ft for four (4), twenty-five (25) foot rows and two (2) rows wide.
FIGS. 1 and 3 depict the 1999 and 2000 Foliar Treatment Viability and Mortality Data. In 1999, the Carbenoxolone concentration was varied between 125 and 1000 μg/ml diluted in one gallon of water. The treatment composition was applied to the canopy of plants at various developmental stages (V-2, R-1 and R-6). The foliar application was accomplished using the pressurized boom-spray unit attached to a tractor at reproductive stage V-2 or R-1, or by a backpack spray unit at reproductive stage R-6. The mortality and viability data were collected at developmental stage R-8, usually around week eleven (11) or twelve (12) in the plant's lifecycle. Also shown in FIGS. 1 and 3, the percent mortalities were calculated based on the number of plants that died at twelve (12) weeks of growth as compared to the total number of seeds planted per treatment. The viability percentages as shown in FIGS. 1 and 3 were calculated from the total number of seeds planted per treatment, as compared to the viability data taken at three (3) weeks of growth. The seed germination rate was greater than 99% and was determined prior to planting. […] This appears unchanged from the untreated control, which had similar percentages. […] The Carbenoxolone treatment solution having 125 μg/ml has a mortality percentage of approximately 10.4% compared to a mortality percentage of an uncontrolled of 20%.
The […] foliar treatment using Cabenoxolone also had similar results as in 1999. The mortality percentage of plants treated with a Carbenoxolone solution decreased when compared to an untreated control.

[2] = tested on: soil-borne fungal diseases; assay: 1999/2000 foliar application: mean disease rating and percent mortality; format: in vivo, soybean; conditions: dead plants / germinated plants, week 11
Excerpt: Beginning at developmental stage V1, a visual disease rating was employed to determine the overall visual health of the plant based on foliar, pod and stem disease. The foliar disease rating system was based from the Soybean Diseases Atlas by the Southern Soybean Disease Workers (W. J. Walla, ed. 1979, Texas A&M University). A 1-5 rating system was utilized, wherein 1=0%, 2=25%, 3=50%, 4=75%, 5=100% based on leaf area affected by disease symptoms.
FIG. 2 illustrates the 1999 Mean Disease Rating for Each Foliar Application, Percent Mortality and the Statistical Significance as Measured by the Student-Newman-Keuls (“SNK”) Analysis. The disease ratings as shown in FIGS. 2 and 4 are an objective number rating assigned as a percentage of a plot infected having a rating scale of 1=0%, 2=25%, 3=50%, 4=75% and 5=100%. The SNK data comprising letters which are different are statistically significant from other letter assigned data sets, which allows the single year data to show how weather influences the outcome of the treatment. […] The mortality count was taken at week eleven (11) in the 1999 and 2000 growing seasons. As previously stated, the SNK statistical analysis illustrate the statistical significance of the data, wherein means with the same letter are not statistically different. […] Even lower, 1000 μg/ml of Carbenoxolone solution a mortality rate of 22%.

[3] = tested on: Pythium, Phytophthora, Phomopsis and Rhizoctonia fungal pathogens; assay: Field trial 2003-2005: soybean pre-emergence mortality by seed/foliar treatment; format: in vivo; design: pre-emergence mortality, average non-emergent seeds: concentration or dose not given beside the values
Excerpt: (§2) Test plots were organized into randomized block design consisting of fifteen (15) total treatments. Treatments included either a control group, a seed treatment, foliar treatment, or a combination seed and foliar treatment. Each treatment consisted of four (4), twenty-five (25) foot rows in each test plot. The fifteen (15) treatment blocks were planted in quadruplicate for a total of sixty (60) test plots. The test plots were labeled with numerical identification markers which represent the treatment, plot, and replication number. No samples were taken from the two (2) interior rows of each plot so that they could be used for counting plant mortality and harvested for seed yields. The two (2) outside rows were used to sample plants.
(§3) Seeds were treated with stock solutions of the following treatments. Carbenoxolone disodium salt 0, 125, 250, 500 and 1000 μg/L High Grade was utilized for management of Pythium, Phytophthora, Phomopsis and Rhizoctonia fungal pathogens. Gustafson's Magnacoat® (Gustafson, LLC, Plans, Tex.) was used as a seed-coating polymer in conjunction with the other treatment and as a control treatment. For example, stock solutions were prepared in 500 mL beakers as follows: […] High Grade was prepared by adding 0.105 g of 99% pure Carbenoxolone to 65 mL deionized water and mixing using a spatula until completely dissolved, then adding 35 mL Magnacoat® and 5 mL green Pro-lzed® colorant and mixing until homogenous for a total of 105 mL.
(§4) Seeds for each row were treated separately with compounds. A 2.1 mL sample was taken from the stock solution via pipette and placed in a 200 mL glass beaker. A single row seed sample was added to the beaker and the seeds were mixed with a glass stir rod until the seeds were completely covered. The samples were then spread onto a wax sheet and allowed to dry for one (1) to two (2) hours. Each treated seed sample was placed in a labeled twenty pound (20 lb), 4×6 inch manila coin envelope.
as §1
(§5) Germination data was taken at V1 by counting the emergent plants in the two (2) inner yield rows. Plant counts were used to compare with number of seeds planted to determine pre-emergence mortality due to soil-borne early season disease pressure. At the end of the growing season at developmental stage […] when plants were mature, but before full senescence, dead plants were counted. Plant counts were used to determine mortality data for the season caused by overall disease pressure.
In the yield rows, two-hundred and forty (240) seeds were planted per row in the yield rows at the beginning of the growing season, flanked by two (2) rows (two-hundred and forty (240) seeds in each row) for plant sampling. Rows were end trimmed to final twenty-five (25) foot rows with two-hundred (200) seed per row and eight (8) seeds per foot. Mortality data was determined only from the interior yield rows. An average of these pre-emergence mortality totals, (four-hundred (400) seeds in two (2) rows) for all four (4) repetitions was taken to represent pre-emergence mortality. Pre-emergence mortality averages for each treatment with calculated standard deviations are compared in FIG. 5. Pre-emergence mortality indicates the number of plants that died before emergence. Treatments were either untreated control seed or seeds treated with the polymer in combination with Carbenoxolone. Foliar treatments indicate that the same compound used as a seed treatment was then applied as a foliar spray at a set plant development stage (R1 or R4). […]

[4] = tested on: Pythium, Phytophthora, Phomopsis and Rhizoctonia fungal pathogens; assay: Field trial 2003-2005: soybean post-emergence mortality by seed/foliar treatment; format: in vivo; design: concentration or dose not given beside the values
Excerpt: as §2, §3, §4, §1, §5
Post-emergence mortality was obtained by totaling the number of dead plants at the end of the growing season as compared to the number of plants that successfully emerged. Plant mortality counts were taken at developmental stage R8, within the two (2) yield rows and an average of these mortality totals was obtained for all four (4) repetitions. Post-emergence mortality averages and standard deviations for all four (4) repetitions and treatments over three (3) years of testing are compared in FIG. 6. Post-emergence mortality indicates the number of plants that died within the growing season after emergence. Similar to FIG. 5, treatments were either untreated control seed or seeds treated with the polymer in combination with Carbenoxolone. Foliar treatments indicate that the same compound used as a seed treatment was then applied as a foliar spray at a set plant development stage (R1 or R4). The percentage is based on the average of V1 emerged viable seedlings counted compared to the R8 viable plants counted.

[5] = tested on: Pythium, Phytophthora, Phomopsis and Rhizoctonia fungal pathogens; assay: Field trial 2003-2005: soybean viability at R8 by seed/foliar treatment; format: in vivo; design: viability average: concentration or dose not given beside the values
Excerpt: as §2, §3, §4, §1
The viability data was obtained by totaling the number of healthy plants within the two (2) yield rows at the end of the growing season when plants reached developmental stage R8 and these totals were averaged and standard deviations calculated for all four (4) repetitions per treatment. […] Viability averages of all treatment repetitions for a growing year, for three (3) years of field-testing are compared in FIG. 7. Viability indicates the number of healthy plants at the end of the growing season. Similar to FIGS. 5 and 6, treatments were either untreated control seed or seeds treated with the polymer in combination with Carbenoxolone. Foliar treatments indicate that the same compound used as a seed treatment was then applied as a foliar spray at a set plant development stage (R1 or R4). Percentage is based on the average number of viable plants counted at R8.

[6] = Field trial 2003-2005: seed yield; format: in vivo, soybean
Excerpt: At the end of the growing seasons, marked by plant senescence, the two (2) interior yield rows were harvested using a Massey-Ferguson two-row experimental test, combined with an onboard computer processor for determining seed weight, seed moisture and collection of samples. Yield data included seed moisture and seed weight, which were used to determine the overall yield for each test plot.
Yield data was obtained from the two (2) yield rows of twenty-five (25) feet using a conversion equation which utilized the fraction of acreage predetermined test weight and adjusted moisture of the seeds harvested. Yield values represent bushels per acre adjusted for moisture and test weight. […] Multiple comparisons were tested at α=0.1. Again as with previous Figures, treatments were either untreated control seed or seeds treated with a seed coating polymer in combination with Carbenoxolone. Foliar treatments indicate that the same compound used as a seed treatment was then applied as a foliar spray at a set plant development stage (R1 or R4).

[7] = seed combined with R1 foliar, 2003
[8] = seed combined with R1 foliar, 2004
[9] = seed combined with R1 foliar, 2005
[10] = seed combined with R4 foliar, 2003
[11] = seed combined with R4 foliar, 2004
[12] = seed combined with R4 foliar, 2005
[13] = seed treatment (with polymer), 2003
[14] = seed treatment (with polymer), 2004
[15] = seed treatment (with polymer), 2005
[16] = seed treatment combined with R1 foliar, three years of testing

## CC1(C)[C@@H](OC(=O)CCC(=O)O)CC[C@]2(C)[C@H]3C(=O)C=C4[C@@H]5C[C@@](C)(C(=O)O)CC[C@]5(C)CC[C@@]4(C)[C@]3(C)CC[C@@H]12 [Carbenoxolone, 3β-hydroxy-11-oxoolean-12-en-30-oic acid 3-hemisuccinate disodium]
[1]; 125 μg/ml
  increase of viability percentage from the untreated control: approximately 10%
  mortality percentage: approximately 10.4%
[1]; 1000 μg/ml, plants dead at 12 weeks vs seeds planted
  mortality rate: approximately 20%
[1]; 1000 μg/ml, viability at 3 weeks vs seeds planted
  viability rate: approximately 80%
[2]; foliar 500 μg/ml
  mortality rate: 26%
[2]; foliar 1000 μg/ml
  mortality rate: 22%
[3]; R1 foliar only (untreated seed), 2003
  pre-emergence mortality, average non-emergent seeds: 27.50%
[3]; R1 foliar only (untreated seed), 2004
  pre-emergence mortality, average non-emergent seeds: 41.25%
[3]; R1 foliar only (untreated seed), 2005
  pre-emergence mortality, average non-emergent seeds: 27.08%
[3]; R4 foliar only (untreated seed), 2003
  pre-emergence mortality, average non-emergent seeds: 35.41%
[3]; R4 foliar only (untreated seed), 2004
  pre-emergence mortality, average non-emergent seeds: 43.75%
[3]; R4 foliar only (untreated seed), 2005
  pre-emergence mortality, average non-emergent seeds: 27.91%
[3]; [7]
  pre-emergence mortality, average non-emergent seeds: 30.0%
[3]; [8]
  pre-emergence mortality, average non-emergent seeds: 41.24%
[3]; [9]
  pre-emergence mortality, average non-emergent seeds: 30.0%
[3]; [10]
  pre-emergence mortality, average non-emergent seeds: 36.66%
[3]; [11]
  pre-emergence mortality, average non-emergent seeds: 42.5%
[3]; [12]
  pre-emergence mortality, average non-emergent seeds: 28.75%
[3]; [13]
  pre-emergence mortality, average non-emergent seeds: 26.25% and 26%
[3]; seed treatment (with polymer), 2003 vs 2004
  average germination higher in 2003 compared to 2004: 17%
[3]; [14]
  pre-emergence mortality, average non-emergent seeds: 43.33% and 43%
[3]; [15]
  pre-emergence mortality, average non-emergent seeds: 29.16% and 29%
[4]; R1 foliar only, 2003
  post-emergence mortality average: 5.0%
[4]; R1 foliar only, 2004
  post-emergence mortality average: 1.6%
[4]; R1 foliar only, 2005
  post-emergence mortality average: 3.33%
[4]; R4 foliar only, 2003
  post-emergence mortality average: 6.25%
[4]; R4 foliar only, 2004
  post-emergence mortality average: 1.6%
[4]; R4 foliar only, 2005
  post-emergence mortality average: 3.33%
[4]; [7]
  post-emergence mortality average: 5.41% and 5%
[4]; [9]
  post-emergence mortality average: 3.33%
[4]; [11]
  post-emergence mortality average: 2.08%
[4]; [12]
  post-emergence mortality average: 2.5% and 2%
[4]; [13]
  post-emergence mortality average: 5.0%
[4]; [14]
  post-emergence mortality average: 2.08%
[4]; [15]
  post-emergence mortality average: 2.5%
[5]; R1 foliar only, 2003
  viability average: 77.08%
[5]; R1 foliar only, 2004
  viability average: 63.33%
[5]; R1 foliar only, 2005
  viability average: 77.5%
[5]; R4 foliar only, 2003
  viability average: 69.16%
[5]; R4 foliar only, 2004
  viability average: 60.83%
[5]; R4 foliar only, 2005
  viability average: 76.66%
[5]; seed combined with R1 foliar
  Dunnett's t Test analysis of viability data compared to the untreated control: statistically significant difference
[5]; [7]
  viability average: 74.58%
[5]; [8]
  viability average: 63.75%
[5]; [9]
  viability average: 74.58%
[5]; [10]
  viability average: 69.58%
[5]; [11]
  viability average: 62.08%
[5]; [12]
  viability average: 75.83%
[5]; seed treatment (with polymer), 2003, plants at R8
  viability average: 78.39%
[5]; seed treatment (with polymer), 2004, plants at R8
  viability average: 61.66%
[5]; seed treatment (with polymer), 2005, plants at R8
  viability average: 75.41%
[6]; 2003-2005, not statistically significant
  improvement of the average yield: approximately 1.5 bushels/acre
[6]; [16]
  increase of yield: 1.5 bushels per acre
  increase of yield compared to other treatments: 6.9%
